Patent US6906098B2, “Mixed steroidal 1,2,4,5-tetraoxane compounds and methods of making and using thereof” (priority 2002, dated 2005)
Converted amounts (≈) assume the structure as drawn. “And” between values parts separate entries of the source, which are not always exact repeats. Equal entries are not always repeated. Where two headings read alike, the source gives them in different places.

Key:
[1] = tested on: Plasmodium falciparum chloroquine-resistant strain W2; assay: microbe, parasite or virus in culture; format: cell-based; details: for Strain W2 IC50: growth inhibition, chloroquine-resistant strain W2, 66 h incubation; for IC50: Plasmodium falciparum, W2, 66 h, read-out: Strain W2 IC50, growth inhibition, chloroquine-resistant strain W2, 66 h incubation
[2] = tested on: Plasmodium falciparum chloroquine-susceptible strain D6; assay: In vitro antimalarial drug susceptibility assay (radiolabeled hypoxanthine incorporation), strain D6; format: cell-based; details: for Strain D6 IC50: growth inhibition, chloroquine-susceptible strain D6, 66 h incubation; for IC50: Plasmodium falciparum, D6, 66 h, read-out: Strain D6 IC50, growth inhibition, chloroquine-susceptible strain D6, 66 h incubation
[3] = tested on: D6 and W2 P. falciparum clones; format: cell-based, Plasmodium falciparum; details: IC50 (W2)/IC50 (D6) ratio
[4] = tested on: Mycobacterium tuberculosis H37Rv (ATCC 27294); assay: Primary screen, Microplate Alamar Blue Assay (MABA), percent inhibition; format: cell-based; details: primary screening at 6.25 μg/ml; for inhibition at 6.25 µg/mL: Mycobacterium tuberculosis
Protocol: (§1) The activity of the compounds of the present invention against Mycobacterium tuberculosis was determined using the following assays conducted by the National Institute of Allergy and Infectious Diseases (NIAID) supports a TB drug acquisition and screening program, the TAACF.
To determine the percent inhibition the following assay was conducted. Primary screening was conducted at 6.25 μg/ml (or the molar equivalent of highest molecular weight compound in a given series of congeners) against Mycobacterium tuberculosis H37Rv (ATCC 27294) in BACTEC 12B medium using the Microplate Alamar Blue Assay (MABA). See Collins, L. and S. G. Franzblau. 1997. Microplate alamar blue assay versus BACTEC 460 system for high-throughput screening of compounds against Mycobacterium tuberculosis and Mycobacterium avium. Antimicrob Agents Chemother 41:1004-9, which is herein incorporated by reference.
Minimum compound requirements: 1.0 mg.

M. tuberculosis H37Rv = assay: Minimum inhibitory concentration (MIC) in the MABA; format: cell-based, Mycobacterium tuberculosis
Protocol: as §1
2. Minimum Inhibitory Concentration (MIC)
The MIC is defined as the lowest concentration effecting a reduction in fluorescence of 90% relative to controls. Minimum compound requirements: 1.0 mg.

[5] = Table 3, H37Rv, read-out: Inhibition (%)
[6] = Table 5, Alamar assay, read-out: % Inhib
[7] = Mycobacterium tuberculosis, H37RV, Table 3, H37Rv, read-out: MIC
[8] = Mycobacterium tuberculosis, H37RV, Table 5, Alamar assay, M. tuberculosis H37Rv, read-out: MIC
[9] = Table 5, Alamar assay, M. tuberculosis H37Rv

CCNC(=O)CCC(C)[C@H]1CCC2C3C(C[C@H](OC(C)=O)[C@@]21C)[C@@]1(C)CCC2(C[C@H]1C[C@H]3OC(C)=O)OOC1(CCC(c3ccccc3)CC1)OO2 (single isomer, unassigned) [Compound 1C47, N-Ethyl-7α,12α-Diacetoxy-5β-cholan-24-amide-3-spiro-6′-(1′,2′,4′, 5′-tetraoxacyclohexane)-3′-spiro-1″-((4″R or S)-phenyl)cyclohexane]
Strain W2 IC50 [1]: 5.87 ng/mL | Strain D6 IC50 [2]: 5.41 ng/mL | Resistance Index [3]: 1.08 | inhibition at 6.25 µg/mL [4, 5]: 50% | inhibition at 6.25 µg/mL [4, 6]: 50% | MIC (M. tuberculosis H37Rv; [7]): > 6.25 µg/mL | MIC (M. tuberculosis H37Rv; [8]): > 6.25 µg/mL

CCCNC(=O)CCC(C)[C@H]1CCC2C3C(C[C@H](OC(C)=O)[C@@]21C)[C@@]1(C)CCC2(C[C@H]1C[C@H]3OC(C)=O)OOC1(CCC(c3ccccc3)CC1)OO2 (single isomer, unassigned) [Compound 1C48, N-(n-Propyl)-7α,12α-Diacetoxy-5β-cholan-24-amide-3-spiro-6′-(1′,2′,4′,5′-tetraoxacyclohexane)-3′-spiro-1″-((4″R or S)-phenyl)cyclohexane]
Strain W2 IC50 [1]: 6.72 ng/mL | Strain D6 IC50 [2]: 6.59 ng/mL | Resistance Index [3]: 1.02 | inhibition at 6.25 µg/mL [4, 5]: 46% | inhibition at 6.25 µg/mL [4, 6]: 46% | MIC (M. tuberculosis H37Rv; [7]): > 6.25 µg/mL | MIC (M. tuberculosis H37Rv; [8]): > 6.25 µg/mL

CC(=O)O[C@H]1CC2C(C3CC[C@H](C(C)CCC(=O)O)[C@]31C)[C@H](OC(C)=O)C[C@@H]1CC3(CC[C@]21C)OOC1(CCC(c2ccccc2)CC1)OO3 (single isomer, unassigned) [Compound 1C49, 7α,12α-Diacetoxy-5β-cholan-24-oic acid-3-spiro-6′-(1′,2′,4′,5′-tetraoxacyclohexane)-3′-spiro-1″-((4″S or R)-phenyl)cyclohexane]
Strain W2 IC50 [1]: 43.85 ng/mL | Strain D6 IC50 [2]: 54.24 ng/mL | Resistance Index [3]: 0.81 | Inhibition (%) ([4]; Table 3, H37Rv): 89% | % Inhib ([4]; Table 5, Alamar assay): 89% | MIC (M. tuberculosis H37Rv; Table 3, H37Rv): >6.25 µg/mL | MIC (M. tuberculosis H37Rv; [9]): >6.25 µg/mL

CC(=O)O[C@H]1CC2C(C3CC[C@H](C(C)CCC(N)=O)[C@]31C)[C@H](OC(C)=O)C[C@@H]1CC3(CC[C@]21C)OOC1(CCC(c2ccccc2)CC1)OO3 (single isomer, unassigned) [Compound 1C50, 7α,12α-Diacetoxy-5β-cholan-24-amide-3-spiro-6′-(1′,2′,4′,5′-tetraoxacyclohexane)-3′-spiro-1″-((4″S or R)-phenyl)cyclohexane]
Strain W2 IC50 [1]: 37.46 ng/mL | Strain D6 IC50 [2]: 40.49 ng/mL | Resistance Index [3]: 0.92 | Inhibition (%) ([4]; Table 3, H37Rv): 87% | % Inhib ([4]; Table 5, Alamar assay): 87% | MIC (M. tuberculosis H37Rv; Table 3, H37Rv): 6.25 µg/mL (≈ 8.98 µM) | MIC (M. tuberculosis H37Rv; [9]): >6.25 µg/mL

CNC(=O)CCC(C)[C@H]1CCC2C3C(C[C@H](OC(C)=O)[C@@]21C)[C@@]1(C)CCC2(C[C@H]1C[C@H]3OC(C)=O)OOC1(CCC(c3ccccc3)CC1)OO2 (single isomer, unassigned) [Compound 1C51, N-Methyl-7α,12α-Diacetoxy-5β-cholan-24-amide-3-spiro-6′-(1′,2′,4′,5′-tetraoxacyclohexane)-3′-spiro-1″-((4″S or R)-phenyl)cyclohexane]
Strain W2 IC50 [1]: 54.72 ng/mL | Strain D6 IC50 [2]: 64.62 ng/mL | Resistance Index [3]: 0.85 | Inhibition (%) ([4]; Table 3, H37Rv): 61% | % Inhib ([4]; Table 5, Alamar assay): 61% | MIC (M. tuberculosis H37Rv; Table 3, H37Rv): >6.25 µg/mL | MIC (M. tuberculosis H37Rv; [9]): >6.25 µg/mL

CCNC(=O)CCC(C)[C@H]1CCC2C3C(C[C@H](OC(C)=O)[C@@]21C)[C@@]1(C)CCC2(C[C@H]1C[C@H]3OC(C)=O)OOC1(CCC(c3ccccc3)CC1)OO2 (single isomer, unassigned) [Compound 1C52, N-Ethyl-7α,12α-Diacetoxy-5β-cholan-24-amide-3-spiro-6′-(1′,2′,4′,5′-tetraoxacyclohexane)-3′-spiro-1″-((4″S or R)-phenyl)cyclohexane]
Strain W2 IC50 [1]: 32.58 ng/mL | Strain D6 IC50 [2]: 32.79 ng/mL | Resistance Index [3]: 0.99 | Inhibition (%) ([4]; Table 3, H37Rv): 62% | % Inhib ([4]; Table 5, Alamar assay): 62% | MIC (M. tuberculosis H37Rv; Table 3, H37Rv): >6.25 µg/mL | MIC (M. tuberculosis H37Rv; [9]): >6.25 µg/mL

CCCNC(=O)CCC(C)[C@H]1CCC2C3C(C[C@H](OC(C)=O)[C@@]21C)[C@@]1(C)CCC2(C[C@H]1C[C@H]3OC(C)=O)OOC1(CCC(c3ccccc3)CC1)OO2 (single isomer, unassigned) [Compound 1C53, N-(n-Propyl)-7α,12α-Diacetoxy-5β-cholan-24-amide-3-spiro-6′-(1′,2′,4′,5′-tetraoxacyclohexane)-3′-spiro-1″-((4″S or R)-phenyl)cyclohexane]
Strain W2 IC50 [1]: 24.54 ng/mL | Strain D6 IC50 [2]: 24.28 ng/mL | Resistance Index [3]: 1.01 | Inhibition (%) ([4]; Table 3, H37Rv): 59% | % Inhib ([4]; Table 5, Alamar assay): 59% | MIC (M. tuberculosis H37Rv; Table 3, H37Rv): >6.25 µg/mL | MIC (M. tuberculosis H37Rv; [9]): >6.25 µg/mL

COC(=O)CCC(C)[C@H]1CCC2C3C(C[C@H](OC(C)=O)[C@@]21C)[C@@]1(C)CCC2(C[C@H]1C[C@H]3OC(C)=O)OOC1(CCCC1)OO2 (stereo partly drawn) [8a/1B04, Methyl 7α,12α-Diacetoxy-5β-cholan-24-oate-3-spiro-6′-(1′,2′,4′,5′-tetraoxacyclohexane)-3′-spirocyclopentane]
IC50 [1]: 0.0172 µg/mL (≈ 0.0277 µM) | IC50 [2]: 0.0243 µg/mL (≈ 0.0391 µM) | Resistance Index [3]: 0.71 | inhibition at 6.25 µg/mL [4, 6]: 0% | MIC (M. tuberculosis H37Rv; [8]): > 6.25 µg/mL

COC(=O)CCC(C)[C@H]1CCC2C3C(C[C@H](OC(C)=O)[C@@]21C)[C@@]1(C)CCC2(C[C@H]1C[C@H]3OC(C)=O)OOC1(CCCCC1)OO2 (stereo partly drawn) [8b/1B05, Methyl 7α,12α-Diacetoxy-5β-cholan-24-oate-3-spiro-6′-(1′,2′,4′,5′-tetraoxacyclohexane)-3′-spirocyclohexane]
IC50 [1]: 0.0108 µg/mL (≈ 0.017 µM) | IC50 [2]: 0.0136 µg/mL (≈ 0.0215 µM) | Resistance Index [3]: 0.79 | inhibition at 6.25 µg/mL [4, 6]: 0% | MIC (M. tuberculosis H37Rv; [8]): > 6.25 µg/mL

COC(=O)CCC(C)[C@H]1CCC2C3C(C[C@H](OC(C)=O)[C@@]21C)[C@@]1(C)CCC2(C[C@H]1C[C@H]3OC(C)=O)OOC1(CC(C)CCC1C(C)C)OO2 (stereo partly drawn) [8f/1B10, Methyl 7α,12α-diacetoxy-5β-cholan-24-oate-3-spiro-6′-(1′,2′,4′,5′-tetraoxacyclohexane)-3′-spiro-1″-(−)-menthane]
IC50 [1]: 0.0506 µg/mL (≈ 0.0732 µM) | IC50 [2]: 0.107 µg/mL (≈ 0.154 µM) | Resistance Index [3]: 0.47 | inhibition at 6.25 µg/mL [4, 6]: 0% | MIC (M. tuberculosis H37Rv; [8]): > 6.25 µg/mL

CC(=O)O[C@H]1CC2C(C3CC[C@H](C(C)CCC(=O)O)[C@]31C)[C@H](OC(C)=O)C[C@@H]1CC3(CC[C@]21C)OOC1(CCCCC1)OO3 (stereo partly drawn) [9b/1C15, 70α,12α-Diacetoxy-5β-cholan-24-oic acid-3-spiro-6′-(1′,2′,4′,5′-tetraoxacyclohexane)-3′-spirocyclohexane]
IC50 [1]: 0.0119 µg/mL (≈ 0.0192 µM) | IC50 [2]: 0.019 µg/mL (≈ 0.0306 µM) | Resistance Index [3]: 0.63 | inhibition at 6.25 µg/mL [4, 6]: 33% | MIC (M. tuberculosis H37Rv; [8]): > 6.25 µg/mL

CC(=O)O[C@H]1CC2C(C3CC[C@H](C(C)CCC(=O)O)[C@]31C)[C@H](OC(C)=O)C[C@@H]1CC3(CC[C@]21C)OOC1(CCCCC1C)OO3 (stereo partly drawn) [9d/1C16, 7α,12α-Diacetoxy-5β-cholan-24-oic acid-3-spiro-6′-(1′,2′,4′,5′-tetraoxacyclohexane)-3′-spiro-1″-(2″-methyl)cyclohexane]
IC50 [1]: 0.0238 µg/mL (≈ 0.0375 µM) | IC50 [2]: 0.0429 µg/mL (≈ 0.0676 µM) | Resistance Index [3]: 0.56 | inhibition at 6.25 µg/mL [4, 6]: 0% | MIC (M. tuberculosis H37Rv; [8]): > 6.25 µg/mL

CC(=O)O[C@H]1CC2C(C3CC[C@H](C(C)CCC(=O)O)[C@]31C)[C@H](OC(C)=O)C[C@@H]1CC3(CC[C@]21C)OOC1(CCC(C)CC1)OO3 (stereo partly shown) [9g/1C17]
Strain W2 IC50 [1]: 0.62 ng/mL | Strain D6 IC50 [2]: 0.97 ng/mL | Resistance Index [3]: 0.64 | inhibition at 6.25 µg/mL [4, 5]: 21% | inhibition at 6.25 µg/mL [4, 6]: 21% | MIC (M. tuberculosis H37Rv; [7]): > 6.25 µg/mL and > 9.84 µM | MIC (M. tuberculosis H37Rv; [8]): > 6.25 µg/mL

CC(=O)O[C@H]1CC2C(C3CC[C@H](C(C)CCC(=O)O)[C@]31C)[C@H](OC(C)=O)C[C@@H]1CC3(CC[C@]21C)OOC1(CCC(C)CC1)OO3 (stereo partly shown) [9h/1C18]
Strain W2 IC50 [1]: 11.26 ng/mL | Strain D6 IC50 [2]: 19.74 ng/mL | Resistance Index [3]: 0.57 | % Inhib ([4]; Table 5, Alamar assay): 34% | MIC (M. tuberculosis H37Rv; [9]): >6.25 µg/mL

CCCNC(=O)CCC(C)[C@H]1CCC2C3C(C[C@H](OC(C)=O)[C@@]21C)[C@@]1(C)CCC2(C[C@H]1C[C@H]3OC(C)=O)OOC1(CCCCC1C)OO2 (stereo partly drawn) [16/1C25, N-(n-Propyl)-7α,12α-diacetoxy-5β-cholan-24-amide-3-spiro-6′-(1′,2′,4′,5′-tetraoxacyclohexane)-3′-spiro-1″-(2″-methyl)cyclohexane]
IC50 [1]: 0.00628 µg/mL (≈ 0.00929 µM) | IC50 [2]: 0.00889 µg/mL (≈ 0.0132 µM) | Resistance Index [3]: 0.71 | inhibition at 6.25 µg/mL [4, 6]: 87% | MIC (M. tuberculosis H37Rv; [8]): > 6.25 µg/mL
